≈ marks a conversion by molar mass, not a printed value. Read-outs that look alike come from different tables or passages of the source.
Legend:
[1] = test system: Moraxella species (including Moraxella catarrhalis); test: MIC, 25 ocular isolates, broth microdilution (Example 8); type: cell-based
Description: (§1) Mueller-Hinton Broth supplemented with 2% lysed horse blood in tubes was inoculated with 25 ocular isolates of Streptococcus pneumoniae, Streptococcus viridans group, and Moraxella species (including Moraxella catarrhalis) plus two controls (Staphylococcus aureus and E. coli) and incubated at 37° C. overnight. Additionally, Mueller-Hinton Broth in tubes was inoculated with two controls (Staphylococcus aureus and E. coli) and incubated at 37° C. overnight on a shaker set at 250 rpm.
(§2) On the day of testing, a 640 μg/ml (1280 μg/ml for Serratia marcescens and Pseudomonas aeruginosa) concentration was prepared from a 1% stock solution in 0.01% acetic acid, 0.2% BSA in polypropylene tubes.
(§3) Serial doubling dilutions in 0.01% acetic acid, 0.2% BSA in 96 well polypropylene plates, which are used as reservoirs for the inoculation of the test plates, were carried out to obtain serial dilutions of test agents at 10 times the required test concentrations: 640, 320, 160, 80, 40, 20, 10, 5, 2.5, 1.25, and 0.625 μg/ml (1280, 640, 320, 160, 80, 40, 20, 10, 5, 2.5, and 1.25 μg/ml for Serratia marcescens and Pseudomonas aeruginosa).
(§4) Ten μl of diluted 10×test agents was added to each well of one row of the 96 well polypropylene plates from column 2 to column 12 (column 1 is a control for bacteria alone, with no peptide). Test agent concentrations in columns 2-12 were as follows: 64, 32, 16, 8, 4, 2, 1, 0.5, 0.25, 0.125, and 0.0625 μg/ml (128, 64, 32, 16, 8, 4, 2, 1, 0.5, 0.25, and 0.125 μg/ml for Serratia marcescens and Pseudomonas aeruginosa). The same peptide was in each of the 8 rows. One plate contained dilutions of one test agent and 8 bacterial isolates.
(§5) On the day of testing, the overnight bacterial broth cultures of Streptococcus pneumoniae, Streptococcus viridans and Moraxella species (including Moraxella catarrhalis) plus two controls (Staphylococcus aureus and E. coli) were diluted in 5 ml of trypticase soy broth to yield turbidity equal to a 0.5 McFarland standard. The final inoculum for MIC testing for Streptococcus pneumoniae, Streptococcus viridans and Moraxella species (including Moraxella catarrhalis) was achieved by placing 0.1 ml of the turbidity adjusted sample to 5 ml of Mueller-Hinton broth containing 2% lysed horse red blood cells.
(§6) Ninety μl of the bacterial suspensions was dispensed in each well from column 1 to column 12. Each bacterial isolate was placed in one row of a 96 well polypropylene plate containing the test agents. The plates were placed on shaker at 15 minutes at room temperature, and then incubated at 37° C. overnight. MICs were determined visually as the lowest concentration of drug that inhibits visible bacterial growth.

[2] = test system: Streptococcus viridans group; test: as above; type: cell-based; settings: for MIC: Streptococcus viridans
Description: as §1, §2, §3, §4, §5, §6

[3] = n=25 isolates, >64 replaced with 128

N=C(N)NCCCCC(=O)Nc1cc(C(F)(F)F)cc(NC(=O)c2cc(C(=O)Nc3cc(C(F)(F)F)cc(NC(=O)CCCCNC(=N)N)c3O[C@@H]3CCNC3)ncn2)c1O[C@@H]1CCNC1 [Oligomer 4]
MIC ([1]; Moraxella, 25 ocular isolates, Mueller-Hinton broth with 2% lysed horse red blood cells, read-out: Median MIC): ≤ 4 µg/mL
MIC ([1]; Moraxella, isolate 1 K1614 - MS, read-out: MIC): 16 µg/mL (≈ 17.1 µM)
MIC ([1]; Moraxella, isolate 2 K1661 - MS, read-out: MIC): 32 µg/mL (≈ 34.2 µM)
MIC ([1]; Moraxella, isolate 3 K1643 - MS, read-out: MIC): 64 µg/mL (≈ 68.3 µM)
MIC ([1]; Moraxella, isolate 4 K1640 - MS, read-out: MIC): 8 µg/mL (≈ 8.54 µM)
MIC ([1]; Moraxella, isolate 5 B1431 - MS, read-out: MIC): 32 µg/mL (≈ 34.2 µM)
MIC ([1]; Moraxella, isolate 6 B1429 - MS, read-out: MIC): 1 µg/mL (≈ 1.07 µM)
MIC ([1]; Moraxella, isolate 7 B1418 - MS, read-out: MIC): 32 µg/mL (≈ 34.2 µM)
MIC ([1]; Moraxella, isolate 8 K1784 - MS, read-out: MIC): 64 µg/mL (≈ 68.3 µM)
MIC ([1]; Moraxella, isolate 9 K1773 - MS, read-out: MIC): 64 µg/mL (≈ 68.3 µM)
MIC ([1]; Moraxella, isolate 10 K1369 - MS, read-out: MIC): 2 µg/mL (≈ 2.13 µM)
MIC ([1]; Moraxella, isolate 11 B1275 - MS, read-out: MIC): 2 µg/mL (≈ 2.13 µM)
MIC ([1]; Moraxella, isolate 12 B1221 - MS, read-out: MIC): 2 µg/mL (≈ 2.13 µM)
MIC ([1]; Moraxella, isolate 13 B1172 - MS, read-out: MIC): > 64 µg/mL
MIC ([1]; Moraxella, isolate 14 E542 - MS, read-out: MIC): 2 µg/mL (≈ 2.13 µM)
MIC ([1]; Moraxella, isolate 15 K678 - MS, read-out: MIC): 2 µg/mL (≈ 2.13 µM)
MIC ([1]; Moraxella, isolate 16 K660 - MS, read-out: MIC): 2 µg/mL (≈ 2.13 µM)
MIC ([1]; Moraxella, isolate 17 K599 - MC, read-out: MIC): 0.5 µg/mL (≈ 0.534 µM)
MIC ([1]; Moraxella, isolate 18 K1650 - MC, read-out: MIC): 64 µg/mL (≈ 68.3 µM)
MIC ([1]; Moraxella, isolate 19 K1373 - MC, read-out: MIC): 1 µg/mL (≈ 1.07 µM)
MIC ([1]; Moraxella, isolate 20 K1553 - MC, read-out: MIC): 4 µg/mL (≈ 4.27 µM)
MIC ([1]; Moraxella, isolate 21 K1453 - MC, read-out: MIC): 4 µg/mL (≈ 4.27 µM)
MIC ([1]; Moraxella, isolate 22 K1227 - MC, read-out: MIC): 2 µg/mL (≈ 2.13 µM)
MIC ([1]; Moraxella, isolate 23 B1102 - MC, read-out: MIC): 1 µg/mL (≈ 1.07 µM)
MIC ([1]; Moraxella, isolate 24 K1819 - MC, read-out: MIC): 4 µg/mL (≈ 4.27 µM)
MIC ([1]; Moraxella, isolate 25 K1855 - MC, read-out: MIC): 2 µg/mL (≈ 2.13 µM)
MIC50 ([1]; Moraxella, n=25 isolates, >64 replaced with 128, read-out: MIC50): 4 µg/mL (≈ 4.27 µM)
MIC90 ([1]; Moraxella, n=25 isolates, >64 replaced with 128, read-out: MIC90): 64 µg/mL (≈ 68.3 µM)
MIC ([1]; Moraxella, n=25 isolates, >64 replaced with 128, read-out: Median MIC): 4 µg/mL (≈ 4.27 µM)
MIC50 [1, 3]: 4 µg/mL (≈ 4.27 µM)
MIC90 [1, 3]: 64 µg/mL (≈ 68.3 µM)
Range of MICs [1, 3]: 0.5 to 128 µg/mL
MIC50 ([2]; 25 isolates, Row 13): 4 µg/mL (≈ 4.27 µM)
MIC90 ([2]; 25 isolates, Row 22, >64 was Replaced with 128): 8 µg/mL (≈ 8.54 µM)
Range of MICs ([2]; 25 isolates, Summary of Results, >64 was Replaced with 128): 1 to 32 µg/mL
MIC ([2]; 25 ocular isolates, Mueller-Hinton broth with 2% lysed horse red blood cells, read-out: Median MIC): 4 µg/mL (≈ 4.27 µM)
MIC ([2]; isolate 1—K1684, read-out: MIC): 2 µg/mL (≈ 2.13 µM)
MIC ([2]; isolate 2—K1680, read-out: MIC): 4 µg/mL (≈ 4.27 µM)
MIC ([2]; isolate 3—E546, read-out: MIC): 1 µg/mL (≈ 1.07 µM)
MIC ([2]; isolate 4—E272, read-out: MIC): 2 µg/mL (≈ 2.13 µM)
MIC ([2]; isolate 5—E506, read-out: MIC): 16 µg/mL (≈ 17.1 µM)
MIC ([2]; isolate 6—E496, read-out: MIC): 1 µg/mL (≈ 1.07 µM)
MIC ([2]; isolate 7—E456, read-out: MIC): 4 µg/mL (≈ 4.27 µM)
MIC ([2]; isolate 8—E432, read-out: MIC): 4 µg/mL (≈ 4.27 µM)
MIC ([2]; isolate 9—E423, read-out: MIC): 4 µg/mL (≈ 4.27 µM)
MIC ([2]; isolate 10—E418, read-out: MIC): 8 µg/mL (≈ 8.54 µM)
MIC ([2]; isolate 11—E412, read-out: MIC): 2 µg/mL (≈ 2.13 µM)
MIC ([2]; isolate 12—E409, read-out: MIC): 8 µg/mL (≈ 8.54 µM)
MIC ([2]; isolate 13—E405, read-out: MIC): 4 µg/mL (≈ 4.27 µM)
MIC ([2]; isolate 14—E404, read-out: MIC): 32 µg/mL (≈ 34.2 µM)
MIC ([2]; isolate 15—E396, read-out: MIC): 16 µg/mL (≈ 17.1 µM)
MIC ([2]; isolate 16—E262, read-out: MIC): 1 µg/mL (≈ 1.07 µM)
